# Laboratory results published in patent US11718618B2, “Substituted pyrido[2,1-a]isoquinolines as VMAT2 inhibitors” (priority 2021, dated 2023).
# Tests used:
# [1] = target: human VMAT2 (Homo sapiens (Human), UniProt Q05940); test: VMAT2 radioligand binding, 3H-dihydrotetrabenazine competition on human platelet homogenate; settings: 10 nM 3H-dihydrotetrabenazine, human platelet homogenate, 25° C., 90 minutes; read-out: VMAT2 Ki
# Procedure, shortened: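 Human platelet homogenate (30 μg membrane protein/well) in DPBS with 1 mM EDTA, pH 7.4; twelve test-compound concentrations competed against 10 nM ³H-dihydrotetrabenazine. Incubated 90 min at 25 °C, bound radioligand collected by filtration on PEI-pretreated glass-fibre filters and counted by scintillation; Ki derived.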
# [2] = system: male Sprague-Dawley rats; test: Open-field hypolocomotion / locomotor activity (LMA) assay; type: in vivo; settings: Rattus norvegicus, pre-treatment 60 or 120 minutes, beam breaks in 30 min, read-out: ED50, reduction of locomotor activity
# Procedure: The effect of VMAT2 inhibitors on dopamine depletion was measured using the locomotor activity (LMA) assay. Following a pre-treatment time of 60 or 120 minutes, male Sprague-Dawley rats (200-250 g) were placed in a clear cage surrounded by photocell detectors (San Diego Instruments). Rat locomotor activity was detected by breaks in the photocell beams and activity is defined as the number of beam breaks in 30 min. Data was analyzed by one-way analysis of variance (ANOVA; SigmaStat version 3.0.1, SPSS, Chicago, Ill.) followed by the Student Newman Keuls post-hoc test for significance.
# [3] = Stability of compounds in human liver microsomes; type: in vitro ADME; settings: for CLint scaled at 0.5 μM / half-life at 0.5 μM: both sexes, pH 7.4; for CLint scaled at 0.5 μM: liver microsomes, calculated from HLM half-life, read-out: HLM Scaled Intrinsic Clearance; for CLint scaled at 0.5 μM / Predicted Max. Bioavailability (% F) / HLM Predicted Systemic Clearance: human; for half-life at 0.5 μM: 0.5 μM compound, 0.5 mg/mL human liver microsomes, 37° C., maxed at 420 minutes, read-out: HLM Elimination half-life (t1/2, min); for Predicted Max. Bioavailability (% F): predicted from HLM data; for HLM Predicted Systemic Clearance: scaled from HLM half-life (Obach method)
# Procedure, shortened: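 Compound at 0.5 μM incubated at 37 °C with pooled mixed-gender human liver microsomes (0.5 mg/mL protein) and an NADPH-generating system in pH 7.4 phosphate buffer, sampled 0–60 min. Parent depletion tracked by LC-MS/MS; t1/2 derived from the slope by non-linear regression, with predicted extraction ratio and maximum bioavailability also calculated.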
# [4] = system: male Wistar rats; test: Conditioned avoidance response (CAR) assay of antipsychotic activity; type: in vivo, rat
# Procedure: Animals: Adult male Wistar rats from Envigo (Indianapolis, Ind.) were used in this study. Rats were received at approximately 150 g, assigned unique identification numbers and group housed 2-3 per cage in ventilated cages. All rats were examined, handled, and weighed prior to initiation of the study to assure adequate health and suitability. During the course of the study, 12/12 light/dark cycles were maintained. The RT was maintained between 20° C. and 23° C. with a relative humidity around 50%. Chow and water were provided ad libitum for the duration of the study. All testing was conducted during the light cycle of the rats.
# Compound 4-1 (0.03, 0.1, 0.3, and 1 mg/kg) was formulated in 0.25% methyl cellulose and administered orally at a dose volume of 3 mL/kg 120 minutes prior to test.
# Compound 4-15 (0.03, 0.1, 0.3, and 1 mg/kg) was formulated in 0.25% methyl cellulose and administered orally at a dose volume of 3 mL/kg 120 minutes prior to test.
# In the CAR paradigm, an animal is trained to respond to a conditioned stimulus (auditory and visual) by negative reinforcement (foot shock). Numerous studies have shown that typical and atypical antipsychotic drugs selectively suppress CAR, thus making it an ideal assay to screen potential antipsychotic compounds (Wadenberg & Hicks, Neuroscience and Biobehavioral Reviews, (1999) 23:851-862).
# Rats were placed in the CAR two-way shuttle box and the training period of 20 trials ensued. A trial consisted of a 10-sec presentation of an 80 dB white noise followed by a scrambled 0.6 mA foot shock lasting up to 20 sec. The inter-trial interval ranged from 20-60 sec. The rat learned to avoid shock by moving from one compartment to the other when the cue is presented. […] The following measures were captured from the assay:
# Avoidance response: If the rat moved from one compartment to the other during the cued-stimulus (CS) presentation. Decreased avoidance responding is the typical signature of an efficacious dose of an antipsychotic.
# Avoidance response data were expressed as the number of avoidance responses as well as percent of avoidance responses based on the three baseline responses prior to drug test. Escape failures were expressed as the total number of failures during the test session.
# Body weight and avoidance data were analyzed by analysis of variance (ANOVA) followed by Dunnett's post-hoc comparisons when appropriate. Escape failures were analyzed by Kruskal-Wallis nonparametric analysis followed by Dunn's post hoc comparisons when appropriate. Results are reported as mean SEM. An effect was considered statistically significant if p<0.05.
# human VMAT2, sequence (Q05940 whole entry): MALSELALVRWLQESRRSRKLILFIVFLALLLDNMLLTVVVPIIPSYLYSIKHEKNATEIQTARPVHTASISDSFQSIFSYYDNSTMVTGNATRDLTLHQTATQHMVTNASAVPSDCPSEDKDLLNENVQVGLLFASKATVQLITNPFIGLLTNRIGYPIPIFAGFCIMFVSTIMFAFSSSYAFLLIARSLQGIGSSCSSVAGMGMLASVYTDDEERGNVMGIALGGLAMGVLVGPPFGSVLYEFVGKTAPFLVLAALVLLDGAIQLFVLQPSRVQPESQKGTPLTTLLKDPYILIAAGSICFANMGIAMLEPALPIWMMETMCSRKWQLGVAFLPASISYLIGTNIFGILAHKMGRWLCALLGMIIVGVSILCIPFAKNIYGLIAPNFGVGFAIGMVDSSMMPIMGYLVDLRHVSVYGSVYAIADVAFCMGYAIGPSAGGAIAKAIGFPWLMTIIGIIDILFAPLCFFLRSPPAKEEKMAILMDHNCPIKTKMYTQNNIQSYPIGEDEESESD
SMILES,Ki [1],ED50 [2],CLint scaled at 0.5 μM [3],half-life at 0.5 μM [3],Predicted Max. Bioavailability (% F) [3],HLM Predicted Systemic Clearance [3],"Avoidance and escape failures ([4]; 0.3 mg/kg, oral, Wistar rats)","ED50 ([4]; Rattus norvegicus, read-out: ED50, conditioned avoidance response)"
"COc1cc2c(cc1OC[C@@H](C)O)CCN1C[C@@H](CC(C)(C)C)[C@H](O)C[C@H]21 [Compound 4-55, (2R,3R,11bR)-3-(2,2-dimethylpropyl)-9-[(2R)-2-hydroxypropoxy]-10-methoxy-1H,2H,3H,4H,6H,7H,11bH-pyrido[2,1-a]isoquinolin-2-ol]",4.8 nM,0.29 mg/kg,≤ 2.97 mL/min/kg,≥ 420 min,≥87 % F,≤2.59 mL/min/kg,–,–
"COc1cc2c(cc1OCC(F)(F)F)CCN1C[C@@H](CC(C)(C)C)[C@H](O)C[C@H]21 [Compound 4-1, (2R,3R,11bR)-3-(2,2-dimethylpropyl)-10-methoxy-9-(2,2,2-trifluoroethoxy)-1H,2H,3H,4H,6H,7H,11bH-pyrido[2,1-a]isoquinolin-2-ol]",2.4 nM,0.24 mg/kg,≤ 2.97 mL/min/kg,≥ 420 min,≥87 % F,≤2.59 mL/min/kg,reduction in avoidance without significant increase in escape failures,0.55 mg/kg
"COc1cc2c(cc1OCC1(F)CC1)CCN1C[C@@H](CC(C)(C)C)[C@H](O)C[C@H]21 [Compound 4-31, (2R,3R,11bR)-3-(2,2-dimethylpropyl)-9-[(1-fluorocyclopropyl)methoxy]-10-methoxy-1H,2H,3H,4H,6H,7H,11bH-pyrido[2,1-a]isoquinolin-2-ol]",1.6 nM,0.31 mg/kg,≤ 2.97 mL/min/kg,≥ 420 min,≥87 % F,≤2.59 mL/min/kg,–,–
"COc1cc2c(cc1OC[C@H](O)C(F)(F)F)CCN1C[C@@H](CC(C)(C)C)[C@H](O)C[C@H]21 [Compound 4-50, (2R,3R,11bR)-3-(2,2-dimethylpropyl)-10-methoxy-9-[(2S)-3,3,3-trifluoro-2-hydroxypropoxy]-1H,2H,3H,4H,6H,7H,11bH-pyrido[2,1-a]isoquinolin-2-ol]",1.4 nM,0.21 mg/kg,≤ 2.97 mL/min/kg,≥ 420 min,≥87 % F,≤2.59 mL/min/kg,–,–
"COc1cc2c(cc1OC1CC1)CCN1C[C@@H](CC(C)(C)C)[C@H](O)C[C@H]21 [Compound 4-27, (2R,3R,11bR)-9-cyclopropoxy-3-(2,2-dimethylpropyl)-10-methoxy-1H,2H,3H,4H,6H,7H,11bH-pyrido[2,1-a]isoquinolin-2-ol]",1 nM,0.14 mg/kg,≤ 2.97 mL/min/kg,≥ 420 min,≥87 % F,≤2.59 mL/min/kg,–,–
"COc1cc2c(cc1OCC(C)(F)F)CCN1C[C@@H](CC(C)(C)C)[C@@H](O)C[C@H]21 [Compound 4-11, (2S,3R,11bR)-9-(2,2-difluoropropoxy)-3-(2,2-dimethylpropyl)-10-methoxy-1H,2H,3H,4H,6H,7H,11bH-pyrido[2,1-a]isoquinolin-2-ol]",14 nM,–,≤ 2.97 mL/min/kg,≥ 420 min,≥87 % F,≤2.59 mL/min/kg,–,–
"COc1cc2c(cc1OCc1cccc(F)c1)CCN1C[C@@H](CC(C)(C)C)[C@H](O)C[C@H]21 [Compound 4-64, (2R,3R,11bR)-3-(2,2-dimethylpropyl)-9-[(3-fluorophenyl)methoxy]-10-methoxy-1H,2H,3H,4H,6H,7H,11bH-pyrido[2,1-a]isoquinolin-2-ol]",5.5 nM,–,38 mL/min/kg,33 min,35 % F,13.1 mL/min/kg,–,–
"COc1cc2c(cc1OCc1ccccc1)CCN1C[C@@H](CC(C)(C)C)[C@H](O)C[C@H]21 [Compound 4-60, (2R,3R,11bR)-9-(benzyloxy)-3-(2,2-dimethylpropyl)-10-methoxy-1H,2H,3H,4H,6H,7H,11bH-pyrido[2,1-a]isoquinolin-2-ol]",3.1 nM,–,33.9 mL/min/kg,37 min,37 % F,12.58 mL/min/kg,–,–
"COc1cc2c(cc1OCCCF)CCN1C[C@@H](CC(C)(C)C)[C@H](O)C[C@H]21 [Compound 4-28, (2R,3R,11bR)-3-(2,2-dimethylpropyl)-9-(3-fluoropropoxy)-10-methoxy-1H,2H,3H,4H,6H,7H,11bH-pyrido[2,1-a]isoquinolin-2-ol]",0.48 nM,–,31.8 mL/min/kg,39 min,39 % F,12.28 mL/min/kg,–,–
"COc1cc2c(cc1OCC1(O)CCC(F)(F)CC1)CCN1C[C@@H](CC(C)(C)C)[C@H](O)C[C@H]21 [Compound 4-76, (2R,3R,11bR)-9-[(4,4-difluoro-1-hydroxycyclohexyl)methoxy]-3-(2,2-dimethylpropyl)-10-methoxy-1H,2H,3H,4H,6H,7H,11bH-pyrido[2,1-a]isoquinolin-2-ol]",82 nM,–,≤ 2.97 mL/min/kg,≥ 420 min,≥87 % F,≤2.59 mL/min/kg,–,–
"COc1cc2c(cc1OC1CCC1)CCN1C[C@@H](CC(C)(C)C)[C@H](O)C[C@H]21 [Compound 4-32, (2R,3R,11bR)-9-cyclobutoxy-3-(2,2-dimethylpropyl)-10-methoxy-1H,2H,3H,4H,6H,7H,11bH-pyrido[2,1-a]isoquinolin-2-ol]",0.59 nM,–,66.5 mL/min/kg,19 min,23 % F,15.38 mL/min/kg,–,–
"COc1cc2c(cc1OCCc1ccc(F)cc1)CCN1C[C@@H](CC(C)(C)C)[C@H](O)C[C@H]21 [Compound 4-117, (2R,3R,11bR)-3-(2,2-dimethylpropyl)-9-[2-(4-fluorophenyl)ethoxy]-10-methoxy-1H,2H,3H,4H,6H,7H,11bH-pyrido[2,1-a]isoquinolin-2-ol]",2.2 nM,–,112 mL/min/kg,11 min,15 % F,16.98 mL/min/kg,–,–
"COc1cc2c(cc1OCc1ncc(C)o1)CCN1C[C@@H](CC(C)(C)C)[C@H](O)C[C@H]21 [Compound 4-36, (2R,3R,11bR)-3-(2,2-dimethylpropyl)-10-methoxy-9-[(5-methyl-1,3-oxazol-2-yl)methoxy]-1H,2H,3H,4H,6H,7H,11bH-pyrido[2,1-a]isoquinolin-2-ol]",51 nM,–,13.4 mL/min/kg,93 min,60 % F,8.02 mL/min/kg,–,–
